Test results taken from patent US12570687B2, “Triterpenoid compounds, pharmaceutical compositions thereof, and their use for treating a nuclear receptor subfamily 4 group a member 1-mediated disease” (NUCMITO PHARMACEUTICALS COMPANY LIMITED, priority 2019, dated 2026).

Experiments:
Format in all cases: cell-based
HepG2 (liver cancer) = assay: MTT antiproliferative assay, HepG2; details: Homo sapiens, HepG2, 10 μM, 48 or 72 h, read-out: inhibition of cell growth, HepG2
Method: (§1) The antiproliferative activity of a test compound was determined in cell lines: MDA-MB-231 (breast cancer), HepG2 (liver cancer), SW620 (colon cancer), A375 (malignant melanoma), A431 (epidermoid carcinoma), A549 (lung adenocarcinoma), and HeLa ([…]). MDA-MB-231, HepG2, SW480, SW620, A375, and A431 cells were cultured in Dulbecco's modified Eagle's medium (DMEM) containing 10% fetal bovine serum (FBS). HeLa cells were cultured in MEM/EBSS (MEM) containing 10% FBS. A549 cells were maintained in Kaighn's modification of Ham's F-12 medium containing 10% FBS. The colorimetric MTT (3-(4,5-dimethylthiazol-2-yl)-2,5-diphenyltetrazolium bromide) assay was used to measure the cell viability of different cells following treatment with the test compound.
(§2) Briefly cells were seeded in a 96 well plate at a density of 2,000-5,000 cells/well. Following attachment, the cells were treated with the test compound in media at various concentrations ranging from 0.137 to 100 μM or at a single concentration of 10 μM. After the cells were incubated at 37° C. for 48 or 72 h, MTT (20 μL, 5 mg/mL in PBS) was added to each well and the cells were incubated for another 4 h at 37° C. The supernatant was removed carefully and 150 μL of DMSO was added to each well to dissolve the MTT formazan crystals. The plate was shaken for 15-20 min and the absorbance value of each well was determined using a multi-well plate reader at 490 nm. The wells treated with DMSO were taken as a vehicle control. Data were also obtained similarly for all the replicates and the percentage viability was determined with respect to the DMSO-treated cells. The results are summarized in Table 1 below, wherein A represents no less than 80% inhibition of cell growth at 10 μM; B represents no less than 50% but less than 80% inhibition of cell growth at 10 μM; C represents no less than 30% but less than 50% inhibition of cell growth at 10 μM; and D represents less than 30% inhibition of cell growth at 10 μM.

[1] = system: A549 (lung adenocarcinoma); assay: MTT antiproliferative assay, A549; details: Homo sapiens, A549, 10 μM, 48 or 72 h, read-out: inhibition of cell growth, A549
Method: as §1, §2

[2] = system: A375 (malignant melanoma); assay: MTT antiproliferative assay, A375; details: Homo sapiens, A-375, A375, 10 μM, 48 or 72 h, read-out: inhibition of cell growth, A375
Method: as §1, §2

HeLa (ovarian cancer) = assay: MTT antiproliferative assay, HeLa; details: Homo sapiens, 48 or 72 h, read-out: inhibition of cell growth, HELA
Method: as §1, §2

SW620 (colon cancer) = assay: MTT antiproliferative assay, SW620; details: Homo sapiens, SW-620, SW620, 10 μM, 48 or 72 h, read-out: inhibition of cell growth, SW620
Method: as §1, §2

[3] = system: MDA-MB-231 (breast cancer); assay: MTT antiproliferative assay, MDA-MB-231; details: Homo sapiens, MDA-MB-231, 10 μM, 48 or 72 h, read-out: inhibition of cell growth, MDA-MB-231
Method: as §1, §2

[4] = system: A431 (epidermoid carcinoma); assay: MTT antiproliferative assay, A431; details: Homo sapiens, A-431, A431, 10 μM, 48 or 72 h, read-out: inhibition of cell growth, A431
Method: as §1, §2

Compound | inhibition at 10 µM (HepG2 (liver cancer)) | inhibition at 10 µM [1] | inhibition at 10 µM [2] | inhibition at 10 µM (HeLa (ovarian cancer)) | inhibition at 10 µM (SW620 (colon cancer)) | inhibition at 10 µM [3] | inhibition at 10 µM [4]
COC(=O)[C@]1(C)CC[C@]2(C)CC[C@]3(C)C4=CC=C5C(=C/C(=C\C#N)C(=O)C5(C)O)[C@]4(C)CC[C@@]3(C)[C@@H]2C1 (stereo partly drawn) [Compound A37, methyl (2R,4aS,6aS,11E,12bR,14aS,14bR)-11-(cyanomethylidene)-9-hydroxy-2,4a,6a,9,12b,14a-hexamethyl-10-oxo-1,2,3,4,4a,5,6,6a,9,10,11,12b,13,14,14a,14b-hexadecahydropicene-2-carboxylate] | 30 to 50% | < 30% | 30 to 50% | ≥ 80% | 50 to 80% | ≥ 80% | ≥ 80%
CO[C@@]1(C)C2=CC=C3[C@@](C)(CC[C@@]4(C)[C@@H]5C[C@](C)(C(=O)OCc6ccccc6)CC[C@]5(C)CC[C@]34C)C2=CC(=O)[C@@H]1O [Compound A16, benzyl (2R,4aS,6aS,9S,10R,12bR,14aS,14bR)-10-hydroxy-9-methoxy-2,4a,6a,9,12b,14a-hexamethyl-11-oxo-1,2,3,4,4a,5,6,6a,9,10,11,12b,13,14,14a,14b-hexadecahydropicene-2-carboxylate] | ≥ 80% | ≥ 80% | 50 to 80% | ≥ 80% | ≥ 80% | ≥ 80% | ≥ 80%
CNC(=O)[C@]1(C)CC[C@]2(C)CC[C@]3(C)C4=CC=C5C(=CC(=O)[C@H](O)[C@@]5(C)OC)[C@]4(C)CC[C@@]3(C)[C@@H]2C1 [Compound A17, (2R,4aS,6aS,9S,10R,12bR,14aS,14bR)-10-hydroxy-9-methoxy-N,2,4a,6a,9,12b,14a-heptamethyl-11-oxo-1,2,3,4,4a,5,6,6a,9,10,11,12b,13,14,14a,14b-hexadecahydropicene-2-carboxamide] | ≥ 80% | 30 to 50% | 50 to 80% | 50 to 80% | ≥ 80% | ≥ 80% | ≥ 80%
COC(=O)[C@]1(C)CC[C@]2(C)CC[C@]3(C)C4=CC=C5C(=CC(=O)C(=O)[C@@]5(C)OC)[C@]4(C)CC[C@@]3(C)[C@@H]2C1 [Compound A5, methyl (2R,4aS,6aS,9S,12bR,14aS,14bR)-9-methoxy-2,4a,6a,9,12b,14a-hexamethyl-10,11-dioxo-1,2,3,4,4a,5,6,6a,9,10,11,12b,13,14,14a,14b-hexadecahydropicene-2-carboxylate] | ≥ 80% | 30 to 50% | 50 to 80% | ≥ 80% | 50 to 80% | ≥ 80% | ≥ 80%
CO[C@]1(C)C(=O)C(=O)C=C2C1=CC=C1[C@@]2(C)CC[C@@]2(C)[C@@H]3C[C@](C)(C(=O)On4nnc5ccccc54)CC[C@]3(C)CC[C@]12C [Compound A6, 1H-1,2,3-benzotriazol-1-yl (2R,4aS,6aS,9S,12bR,14aS,14bR)-9-methoxy-2,4a,6a,9,12b,14a-hexamethyl-10,11-dioxo-1,2,3,4,4a,5,6,6a,9,10,11,12b,13,14,14a,14b-hexadecahydropicene-2-carboxylate] | ≥ 80% | 50 to 80% | 30 to 50% | ≥ 80% | 50 to 80% | 50 to 80% | 50 to 80%
CO[C@@]1(C)C2=CC=C3[C@@](C)(CC[C@@]4(C)[C@@H]5C[C@](C)(C(=O)O)CC[C@]5(C)CC[C@]34C)C2=CC(O)C1O (stereo partly drawn) [Compound A29, (2R,4aS,6aS,9S,12bR,14aS,14bR)-10,11-dihydroxy-9-methoxy-2,4a,6a,9,12b,14a-hexamethyl-1,2,3,4,4a,5,6,6a,9,10,11,12b,13,14,14a,14b-hexadecahydropicene-2-carboxylic acid] | < 30% | < 30% | < 30% | 50 to 80% | < 30% | < 30% | < 30%
CO[C@@]1(C)C2=CC=C3[C@@](C)(CC[C@@]4(C)[C@@H]5C[C@](C)(C(=O)NO)CC[C@]5(C)CC[C@]34C)C2=CC(=O)[C@@H]1O [Compound A57, (2R,4aS,6aS,9S,10R,12bR,14aS,14bR)—N,10-dihydroxy-9-methoxy-2,4a,6a,9,12b,14a-hexamethyl-11-oxo-1,2,3,4,4a,5,6,6a,9,10,11,12b,13,14,14a,14b-hexadecahydropicene-2-carboxamide] | ≥ 80% | ≥ 80% | 30 to 50% | 50 to 80% | ≥ 80% | 50 to 80% | ≥ 80%
CO[C@@]1(C)C2=CC=C3[C@@](C)(CC[C@@]4(C)[C@@H]5C[C@](C)(C(N)=O)CC[C@]5(C)CC[C@]34C)C2=CC(=O)/C1=C\C#N [Compound A59, (2R,4aS,6aS,9S,10Z,12bR,14aS,14bR)-10-(cyanomethylidene)-9-methoxy-2,4a,6a,9,12b,14a-hexamethyl-11-oxo-1,2,3,4,4a,5,6,6a,9,10,11,12b,13,14,14a,14b-hexadecahydropicene-2-carboxamide] | ≥ 80% | ≥ 80% | ≥ 80% | ≥ 80% | ≥ 80% | ≥ 80% | ≥ 80%
CO[C@@]1(C)C2=CC=C3[C@@](C)(CC[C@@]4(C)[C@@H]5C[C@](C)(C(=O)O)CC[C@]5(C)CC[C@]34C)C2=CC(=NO)[C@@H]1O [Compound A50, (2R,4aS,6aS,9S,10S,12bR,14aS,14bR)-10-hydroxy-11-(hydroxyimino)-9-methoxy-2,4a,6a,9,12b,14a-hexamethyl-1,2,3,4,4a,5,6,6a,9,10,11,12b,13,14,14a,14b-hexadecahydropicene-2-carboxylic acid] | < 30% | < 30% | < 30% | < 30% | < 30% | < 30% | < 30%
CCCC(=O)O[C@H]1C(O)C=C2C(=CC=C3[C@@]2(C)CC[C@@]2(C)[C@@H]4C[C@](C)(C(=O)OC)CC[C@]4(C)CC[C@]32C)[C@]1(C)OC (stereo partly drawn) [Compound A25, methyl (2R,4aS,6aS,9S,10S,12bR,14aS,14bR)-10-(butyryloxy)-11-hydroxy-9-methoxy-2,4a,6a,9,12b,14a-hexamethyl-1,2,3,4,4a,5,6,6a,9,10,11,12b,13,14,14a,14b-hexadecahydropicene-2-carboxylate] | < 30% | < 30% | < 30% | < 30% | < 30% | < 30% | < 30%
CO[C@]1(C)C(=O)C(=O)C=C2C1=CC=C1[C@@]2(C)CC[C@@]2(C)[C@@H]3C[C@](C)(C(=O)NO)CC[C@]3(C)CC[C@]12C [Compound A45, (2R,4aS,6aS,9S,12bR,14aS,14bR)—N-Hydroxy-9-methoxy-2,4a,6a,9,12b,14a-hexamethyl-10,11-dioxo-1,2,3,4,4a,5,6,6a,9,10,11,12b,13,14,14a,14b-hexadecahydropicene-2-carboxamide] | ≥ 80% | ≥ 80% | 50 to 80% | ≥ 80% | 50 to 80% | ≥ 80% | ≥ 80%
